Experimental findings from patent publication US11613545B2, “Macrocyclic compound serving as Wee1 inhibitor and applications thereof” (WUXI BIOCITY BIOPHARMACEUTICS CO., LTD., priority 2017, dated 2023) are described below.

One data set has as its target T1, Wee1 (Homo sapiens, UniProt P30291).
T1 construct: purchased Eurofins
The data set is described as follows: In vitro enzymatic inhibitory activity, Wee1 kinase (Eurofins, [γ-33P]-ATP filter assay). The class given is biochemical. The conditions noted are these: 10 μM [γ-33P]-ATP, 40 min at room temperature. The procedure: The experimental tests were conducted at Eurofins, and the results were provided by the company.
After adding the mixed solution of Mg^2+ and ATP, the reaction started and the reaction solution was incubated at room temperature for 40 min. 3% phosphate buffer was added to stop the reaction. 10 μL of the reaction solution was filtered on a continuous filter P30, washed three times with 75 mM phosphate buffer, once with methanol, and 5 minutes each time. After drying, the value was read by scintillation counting method.

For a further data set, the system named is P-gp (MDR1). The experiment in a line: In vitro permeability test in MDR1-MDCK II cells (bidirectional transport). The class given is in vitro ADME, canine. The conditions noted are these: dog. The text has this: (§1) The study used MDR1-MDCK II cells authorized by Piet Borst laboratory of the Netherlands Cancer Institute, which are a kind of Madin-Darby canine kidney cells transfected with human multi-drug resistance gene (MDR1). The cells can stably express the efflux transporter P glycoprotein (P-gp), so they are suitable for screening P-gp substrates or inhibitors, and predict that the compounds have high efflux barrier permeability such as duodenum, blood-brain barrier, hepatocyte nucleus and renal unit. We used the 5th to 35th generation MDR1-MDCK II cells for permeability study.
(§2) MDR1-MDCK II cells were cultured with α-MEM medium (α-Minimum Essential Media) under the conditions of 37±1° C., 5% CO2 and saturated relative humidity. After that, the cells were inoculated in a BD Transwell-96-well plate with an inoculation density of 2.3×10^5 cells/cm^2, and then the cells were placed in a carbon dioxide incubator for 4-7 days and used for transport experiments. The preparation method of α-MEM medium was as follows: the liquid nutrient base was prepared by dissolving powder (α-MEM powder from Gibco, Cat #: 11900) in pure water, and L-glutamine and NaHCO3 were added. 10% FBS (fetal bovine serum), 1% PS (dual antibiotic) and 1% NEAA were added to make it a complete medium when using.
(§3) Fenoterol and propranolol were tested at a concentration of 2 μM, administered unidirectionally (A-B direction), and duplicated in two wells.
(§4) The solution to be used was pre-incubated in a 37±1° C. water bath for 30 minutes. The dosing solution and the receiving solution were added to the corresponding well positions of the cell plate (75 and 250 μL for each top and bottom well, respectively) to start the bidirectional transport experiment. After loading, the cell plates were placed in an incubator at 37±1° C., 5% CO2 and saturated relative humidity for 150 minutes.
(§5) After vortexing, all samples were centrifuged at 3,220 g for 10 minutes. An appropriate volume of supernatant was transferred to the sample analysis plate, and analyzed by LC/MS/MS. If samples were not analyzed immediately after sealing, they were store at 2-8° C.
(§6) After the transport experiment was completed, the integrity of MDR1-MDCK II cells was tested using Lucifer Yellow Rejection Assay. After incubating the fluorescent yellow solution for 30 minutes, the fluorescent yellow samples were collected, and the relative fluorescence unit (RFU) of the fluorescent yellow in the sample was detected at 425/528 nm (excitation/emission) by the 2e plate reader.
(§7) Semi-quantitative analysis was used for the test products AZD1775 (or the compound of the present invention), the control products fenoterol, propranolol and digoxin. The ratio of the peak area of the analyte to the internal standard was used as the concentration of the reference substance.

The next data set relates to P-gp (human MDR1). Described as above. The class given is in vitro ADME, canine. To be noted: dog; for Papp A→B at 150 min, 2 μM: A to B, read-out: Penetration rate A to B; for Papp B→A at 150 min, 2 μM: B to A, read-out: Penetration rate B to A.
From the text: as §1, §2, §3, §4, §5, §6, §7

Data set [1] can be described thus: Pharmacokinetic evaluation in plasma after single intravenous and single oral administration. The class given is in vivo. To be noted: mouse, female Balb/c Nude mice. On the procedure:
Twelve mice (provided by Lingchang Biotech) were randomly divided into two groups, 6 females in each group, and samples were collected by cross blood collection. […] In the intravenous group, plasma samples were collected at 9 time points of 5 minutes, 15 minutes, 30 minutes, 1 hour, 2 hours, 4 hours, 6 hours, 8 hours, and 24 hours after administration; in the oral group, plasma samples were collected at 8 time points of 15 minutes, 30 minutes, 1 hour, 2 hours, 4 hours, 6 hours, 8 hours, and 24 hours after administration.

In data set [2] the test system is human colon cancer LoVo cell subcutaneous xenograft tumor. The data set is described as follows: In vivo pharmacodynamic study, LoVo subcutaneous xenograft tumor model. The conditions noted are these: 40 mg/kg twice daily, after administration for 16 days. Also on record: species or system BALB/c nude mice. On the procedure:
(1) In vivo pharmacodynamic study of the compounds on human colon cancer LoVo cell subcutaneous xenograft tumor BALB/c nude mouse model
Experimental method: The selected experimental animal (provided by Shanghai Xipu'er-bikai Experimental Animal Co., Ltd.) were BALB/c nude mice, 6-8 weeks old, weighing 18-22 grams.
Human colon cancer LoVo cells were cultured in monolayer in vitro. The culture conditions were Ham's F-12 medium containing 10% fetal bovine serum, 100 U/mL penicillin, 100 μg/mL streptomycin and 2 mM glutamine, 37° C., 5% CO2 culture. Conventional digestion treatment with trypsin-EDTA was performed twice a week for passaging. When the cell saturation was 80%-90%, the cells were collected, counted, and inoculated. 0.1 mL (10×10^6) LoVo cells were subcutaneously inoculated into the right back of each nude mouse. When the average tumor volume reached 213 mm^3, they were divided into groups and the drug administration was started. Dosage: 40 mg/kg twice daily. The experimental index is to investigate whether the tumor growth is inhibited, delayed or cured. The diameter of the tumor was measured with vernier calipers twice a week. The calculation formula of tumor volume is: V=0.5a×b^2, a and b represent the long and short diameters of the tumor, respectively.
The antitumor efficacy of the compound was evaluated by TGI (%) or relative tumor proliferation rate T/C (%). […]

Data set [3] deals with human pancreatic cancer BxPC-3 subcutaneously transplanted tumor. The data set is described as follows: In vivo pharmacodynamic study, BxPC-3 subcutaneously transplanted tumor model. Also on record: species or system BALB/c nude mice. To be noted: BxPC-3 xenograft, 25 mg/kg once a day, after administration for 27 days. The procedure: (2) In vivo pharmacodynamic study of the compound on human pancreatic cancer BxPC-3 BALB/c nude mouse subcutaneously transplanted tumor model
Experimental method: The selected experimental animal was BALB/c nude nude mice, 6-8 weeks old, weighing 18-22 grams.
The 10th generation of BxPC-3 cells were cultured in monolayer in vitro. The culture conditions were RPMI 1640 medium (manufacturer: gibco, article number: 22400-089) containing 10% fetal bovine serum, 100 U/mL penicillin and 100 μg/mL streptomycin, 37° C. 5% CO2 culture, passage was performed for 4 times. The passaging method was conventional digestion treatment with trypsin-EDTA twice a week. When the cell saturation reached 80%-90%, the cells were digested with trypsin-EDTA, counted, and resuspended in PBS at a density of 5×10^7 cells/mL. Each animal was inoculated with 0.1 mL (5×10^6) BxPC-3 cells in the right back. When the average tumor volume reached 153 mm^3, they were randomly divided into groups according to the tumor volume and the drug administration was started. Dosage: 25 mg/kg, once a day.
The experimental index is to investigate whether the tumor growth is inhibited, delayed or cured. The diameter of the tumor was measured with vernier calipers twice a week. The antitumor efficacy of the compound was evaluated by TGI (%) or relative tumor proliferation rate T/C (%). TGI (%) reflects the tumor growth inhibition rate. […]

Data set [4] has as its system CT26 mouse colon cancer transplanted tumor. The experiment in a line: In vivo anti-tumor efficacy, CT26 colon cancer transplanted tumor model. Also on record: species or system BALB/c nude mice. The conditions noted are these: 30 mg/kg twice daily, after administration for 18 days. The procedure:
(3) In vivo anti-tumor efficacy of the compounds on CT26 mouse colon cancer animal transplanted tumor model
Experimental method: The selected experimental animal was BALB/c nude mice, 7 weeks old, weighing 16-20 grams, female.
Cells: Mouse colon cancer CT26 cells (the Cell Bank of Typical Culture Preservation Committee of the Chinese Academy of Sciences) were cultured in monolayer in vitro. The culture conditions were RPMI-1640 medium containing 10% fetal bovine serum and 37° C. 5% CO2 incubator. Conventional digestion treatment with trypsin-EDTA was performed twice a week for passaging. When the cells were in the exponential growth phase and the saturation was 80%-90%, the cells were collected, counted, and inoculated. 0.1 mL DPBS (containing 3×10^5 CT26 cells) was subcutaneously inoculated into the right back of each mouse. When the average tumor volume reached 50-70 mm^3, randomized administration was performed according to tumor volume. Dosage: 30 mg/kg twice daily.
The experimental index is to investigate whether the tumor growth is inhibited, delayed or cured. The diameter of the tumor was measured with vernier calipers twice a week. The antitumor efficacy of the compound was evaluated by TGI (%) or relative tumor proliferation rate T/C (%). TGI (%) reflects the tumor growth inhibition rate.
After the final administration for 18 days, the experimental results are as follows: […]

The IC50 is the concentration that gives 50% inhibition. The low end stands for inhibition by little substance, the high end for a need for much substance. As usually defined, the efflux ratio is the permeability from basolateral to apical divided by that in the opposite direction, in the common usage. The bioavailability is the share of a dose that reaches the circulation, judged against a reference dose that is usually intravenous.

T1 sequence (P30291 whole entry): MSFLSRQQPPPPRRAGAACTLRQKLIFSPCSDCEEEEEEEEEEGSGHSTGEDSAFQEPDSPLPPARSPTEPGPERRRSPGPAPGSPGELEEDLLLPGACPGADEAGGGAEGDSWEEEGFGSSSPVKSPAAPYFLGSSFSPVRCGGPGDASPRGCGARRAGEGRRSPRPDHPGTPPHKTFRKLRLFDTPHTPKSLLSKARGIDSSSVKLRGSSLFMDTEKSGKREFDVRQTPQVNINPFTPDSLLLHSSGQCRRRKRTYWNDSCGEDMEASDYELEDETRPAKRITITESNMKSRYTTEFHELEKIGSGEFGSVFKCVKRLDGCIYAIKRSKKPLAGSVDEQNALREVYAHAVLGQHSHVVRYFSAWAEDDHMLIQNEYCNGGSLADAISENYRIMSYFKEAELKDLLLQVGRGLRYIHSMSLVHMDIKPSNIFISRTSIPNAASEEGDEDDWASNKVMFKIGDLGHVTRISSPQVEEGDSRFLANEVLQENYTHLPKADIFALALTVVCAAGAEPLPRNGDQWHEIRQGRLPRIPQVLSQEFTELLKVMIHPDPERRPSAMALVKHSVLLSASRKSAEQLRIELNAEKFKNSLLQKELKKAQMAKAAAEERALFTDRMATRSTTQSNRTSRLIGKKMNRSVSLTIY

`CN1CCN(c2ccc(Nc3ncc4c(=O)n5n(c4n3)-c3cccc(n3)C(C)(O)CC/C=C\C5)cc2)CC1` (single isomer, unassigned) [Compound 1] displayed an IC50 on Wee1 of 29 nM. In addition, in the data set on P-gp (MDR1), the efflux ratio at 150 min, 2 μM was 3.82. Moreover, the Papp A→B at 150 min, 2 μM in the data set on P-gp (human MDR1) was 4.55 ×10⁻⁶ cm/s. The Papp B→A at 150 min, 2 μM with P-gp (human MDR1) was found to be 17.4 ×10⁻⁶ cm/s. The clearance in data set [1] (1 mg/kg intravenous, 10 mg/kg oral study, read-out: Clearance rate) came out at 33.5 mL/min/kg. For the same molecule, in data set [1] (1 mg/kg intravenous, 10 mg/kg oral study, read-out: Concentration integral AUC), the AUC was determined as 6.04 µM·h. Also, the half-life in data set [1] (1 mg/kg intravenous, 10 mg/kg oral study, read-out: Half-life T1/2 (converted)) was 1.69 h. Besides, the bioavailability in data set [1] (po, 10 mg/kg by gavage vs 1 mg/kg intravenous, read-out: Bioavailability F) was determined as 62.4%. Besides, the “TGI (%)” value in data set [2] was found to be 84.74%; in data set [3], 73.3%; in data set [4] it was 93.38%.

With `C=CCn1c(=O)c2cnc(Nc3ccc(N4CCN(C)CC4)cc3)nc2n1-c1cccc(C(C)(C)O)n1` [AZD1775, reference compound], the Papp A→B at 150 min, 2 μM in the data set on P-gp (human MDR1) was found to be 2.83 ×10⁻⁶ cm/s. In addition, the Papp B→A at 150 min, 2 μM in the data set on P-gp (human MDR1) amounted to 29.3 ×10⁻⁶ cm/s. Besides, the “TGI (%)” value amounted to 26.73% in data set [2], 24.3% in data set [3] and 66.43% in data set [4].
